Assay [1] relates to Dermatophagoides farinae antigen-specific IgE. Kind of assay: Treatment experiment, artificially sensitized dogs: Dermatophagoides farinae antigen-specific IgE (ELISA). In kind it is in vivo, dog. The following applies: artificially sensitized beagles, s.c. 1 mg five times; one individual (04-95) of 4. Here is the method: Dog: 8 artificially sensitized beagles (1 to 8 years old; 4 males and 4 females) were used. The ages and numbers of these 8 dogs were as follows:
Artificial sensitization: 400 μg of a Dermatophagoides farinae antigen (GREER) and 1 mg of an alum adjuvant (LSL) were subcutaneously administered at a 2-week interval, and IgE against the Dermatophagoides farinae antigen was confirmed by ELISA.
Grouping: on the basis of the ELISA results of IgE, the dogs were divided into 2 groups each involving 4 individuals uniformly distributed in terms of their IgE levels and ages.
Vaccine: the M4-7-11 peptide was used alone without being conjugated.
Administration method: 1 mg (500 μL of 2 mg/mL) per dose was subcutaneously administered five times at 2-week intervals.
Evaluation: serum was collected, and an IgG antibody against human IgE was assayed by ELISA. […] The IgE antibody against Dermatophagoides farinae was evaluated by ELISA.
The Dermatophagoides farinae antigen was prepared at 5 μg/mL in an immobilization buffer (0.05 M carbonate buffer, pH 9.6), then added at a concentration of 100 μL/well to an ELISA plate, and left overnight at 4° C. […] Then, the measurement was performed using a plate reader (Bio-Rad Laboratories, Inc.; model 680) (dual: measurement: 450 nm, control: 570 nm).

The subject of a further assay is dog IgG. Kind of assay: Reactivity of serum of peptide-immunized rabbit with dog IgG (ELISA). The format is in vivo. The following applies: 500 μg peptide + complete adjuvant s.c. Here is the method:
2 mL of the 250 μg/mL peptide (a total of 500 μg) used in Example 2 was mixed with an equal amount of a complete adjuvant (a total of 4 mL). Each rabbit was immunized with this mixture by the subcutaneous administration (amount of the peptide: 500 μg) at day 0 and weeks 2, 4, 6, and 8. Blood was collected 5 weeks after the week-8 administration (week 13 counted from day 0). Booster immunization was performed at week 14 counted from day 0, and blood was further collected 2 weeks thereafter (week 16 counted from day 0). Antibody titers in the collected blood were measured by ELISA. The serum of a rabbit that received no peptide was used as a control.
ELISA was performed by the following method: each […] recombinant CH3 solution of dog IgE, human IgE, mouse IgE, dog IgG, and cat IgE was immobilized at a concentration of 100 μL/well (100 ng/well) to a plate. The serum collected from the immunized rabbit was used (×200 to ×102400) as a primary antibody. An enzyme-labeled anti-rabbit IgG antibody (Zymed Laboratories Inc.) was used as a secondary antibody.

2 sequences from US9657071B2, “IgE peptide vaccine” (NIPPON ZENYAKU KOGYO CO., LTD., priority 2012, dated 2017) can be followed below.

As to “KKTSVSASQWYTKHHNNATT (listed as Mus musculus) [M4-7-11]”, the “serum concentration of Dermatophagoides farinae antigen-specific IgE” value in assay [1] is “reduction in the serum concentration of IgE was confirmed in one individual”.

Turning to “QEKKTSVSASQWYTKHHNNATTSIT (listed as Mus musculus) [MOUSE CH3-4-17-11]”, the “response of immobilized dog IgG to peptide-administered rabbit serum” value in the assay on dog IgG is “responded to neither”.
